Data on one compound can be found in BindingDB's records for doi:10.1016/j.bmcl.2007.03.076 (Tanabe Research Laboratories Usa, 2007).

The test deals with T1, Oxysterols receptor LXR-beta (Homo sapiens, UniProt P55055).
T1 sequence (P55055 whole entry): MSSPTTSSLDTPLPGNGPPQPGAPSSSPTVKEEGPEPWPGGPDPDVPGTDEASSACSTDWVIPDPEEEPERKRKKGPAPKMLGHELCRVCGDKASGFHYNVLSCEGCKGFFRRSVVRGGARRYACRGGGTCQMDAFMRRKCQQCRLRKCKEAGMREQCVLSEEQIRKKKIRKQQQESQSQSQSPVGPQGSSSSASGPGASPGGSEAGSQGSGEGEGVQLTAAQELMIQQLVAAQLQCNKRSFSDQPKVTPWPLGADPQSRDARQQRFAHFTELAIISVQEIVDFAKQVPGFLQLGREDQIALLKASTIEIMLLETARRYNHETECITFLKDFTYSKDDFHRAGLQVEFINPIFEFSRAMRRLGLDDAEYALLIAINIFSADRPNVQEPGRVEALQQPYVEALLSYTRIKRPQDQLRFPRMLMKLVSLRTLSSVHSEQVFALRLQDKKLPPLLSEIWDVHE
The test is described as follows: HTRF Cofactor Peptide Recruitment Assay. Particulars: pH 7.5; 22 °C. The procedure:
Polyhistidine-tagged human LXR ligand-binding domain was mixed with the test compound, biotin-SRC1 peptide, streptavidin-allophycocyanin, and europium labeled anti-polyhistidine antibody in reaction buffer, and the mixture was incubated in a 384-well assay plate format. Time-resolved fluorescence was measured at 615 and 665 nm on a LJL Analyst plate reader. The ratio of 665/615 was used to calculate EC50 values of test compounds.

`CC(C)(C)OC(=O)n1c(-c2ccc3c(c2)CC(NS(=O)(=O)c2ccccc2)C3)cc2ccccc21` (stereo unspecified) [tert-butyl 2-(2-benzenesulfonamido-2,3-dihydro-1H-inden-5-yl)-1H-indole-1-carboxylate] gave an EC50 of 210 nM.
